The source of these data is patent US11426473B2, “Nitrogen-containing compound or salt thereof, or metal complex thereof” (FUJIFILM Corporation, priority 2013, dated 2022).

Data set [1] has as its system U87MG cells subcutaneous tumor. Nature of the data set: Concentration of radioactivity in tumor of labeled compounds (Test Example 4). The class given is in vivo, mouse. As to conditions: tail vein, 111In 740 kBq, 64Cu and 90Y 500 kBq. The procedure: U87MG cells were subcutaneously transplanted at 1×10^7 cells/mouse to the right flank of Balb/cAJcl-nu/nu (CLEA Japan, Inc. or Japan SLC, Inc., 6 to 9 weeks old). After 2 to 3 weeks, the mice were divided into groups each involving 3 individuals per point in time when their tumors became 200 to 500 mm^3. The ^111In-labeled compound (740 kBq) was administered to the tail veins of the mice.
After a given time, the animals were sacrificed to extract their tumors. The weights of the tumors were measured, and the radioactivity was measured using a gamma counter to calculate the concentration of radioactivity in the tumors (% ID/g). In the same way as above, the concentration of radioactivity in the tumors (% ID/g) was calculated for the ^64Cu-labeled compound (500 kBq) and the ^90Y-labeled compound (500 kBq).

The subject of data set [2] is T98G cell (human glioblastoma) subcutaneous tumor. Nature of the data set: Treatment experiment of subcutaneously T98G-transplanted model using [90Y]-(P2). The class given is in vivo, mouse. The settings on record: 1 dose; for Rate of inhibition: 13 days after administration, above 100% indicated as 100%; for Tumor volume 13 days after administration / Tumor volume At start of administration: n 6, Mean ± SD; for Tumor volume At start of administration: baseline; for The number of individuals having tumor regression: of n 6. The procedure: (§1) U87MG cells were subcutaneously transplanted at 1×10^7 cells/mouse to the right flank of Balb/c Slc-nu/nu (SLC Japan, Inc., male, 6 weeks old). After 2 weeks, mice whose tumors became 100 to 500 mm^3 were grouped. Phosphate-buffered saline (PBS) or the radiolabeled compound [90Y]-(P2) was administered to the tail veins of the mice, and their tumor volumes were measured. When the tumor volumes of the mice in the PBS group exceeded 2,000 mm^3, which is a humanistic endpoint, the antitumor effect was evaluated. The evaluation values were the rate of inhibition of tumor growth ((1−(Average tumor volume of the compound administration group−Average tumor volume of the compound administration group before administration)/(Average tumor volume of the PBS group−Average tumor volume of the PBS group before administration))×100 (provided that the rate of inhibition exceeding 100% was indicated as 100%)) and the number of individuals having a tumor volume equal to or smaller than that at the start of the experiment (the number of individuals having tumor regression).
A mixture of a T98G cell suspension (human glioblastoma, 1×10^7 cells) and Matrigel (Becton, Dickinson and Company) in equal amounts was subcutaneously transplanted to the right flank of Balb/c Slc-nu/nu (SLC Japan, Inc., male, 6 weeks old). After 77 days, the mice were grouped when their tumors became 300 to 1,200 mm^3. Phosphate-buffered saline (PBS) or the radiolabeled compound [^90Y]-(P2) was administered to the tail veins of the mice, and their tumor volumes were measured. The evaluation values were calculated in the same way as in Test Example 8 to evaluate the antitumor effect.

Data set [3] is described as follows: Radiochemical purity after standing at room temperature. The class given is physicochemical. The settings on record: immediately after preparation and after standing at room temperature for 24 hours. The procedure:
To a mixed solution of compound (P2) (8.5 μg) and a 0.2 mol/L sodium acetate buffer solution (pH 4.0) (1.5 mL), a [^111In] indium chloride solution (80 MBq, 100 μL) was added. The mixture was heated at 100° C. for 15 minutes and then left at room temperature for 5 minutes to obtain radiolabeled compound [^111In]-(P2). […] Its radiochemical purity was 95% or more both immediately after preparation and after standing at room temperature for 24 hours.
To a mixed solution of compound (P2) (79 μg), gentisic acid (1.8 mg), a 0.6 mol/L sodium acetate buffer solution (pH 4.0, 120 μL), and a 0.4 mol/L aqueous sodium hydroxide solution (24 μL), a [^90Y] yttrium chloride solution (700 MBq, 240 μL) was added. The mixture was heated at 100° C. for 20 minutes and then left at room temperature for 5 minutes to obtain radiolabeled compound [^90Y]-(P2). […] Its radiochemical purity was 95% or more both immediately after preparation and after standing at room temperature for 24 hours.
To a mixed solution of compound (P2) ([…]) and a 0.2 mol/L sodium acetate buffer solution (pH 4.0, 219 μL), a [^64Cu] copper chloride solution (pH 5, 35 MBq, 55 μL) was added. The mixture was heated at 100° C. for 15 minutes and then left at room temperature for 5 minutes to obtain radiolabeled compound [^64Cu]-(P2). […] Its radiochemical purity was 90% or more both immediately after preparation and after standing at room temperature for 22 hours.
To a mixed solution of compound (Aa7) (4.2 μg), gentisic acid (1 mg), and a 0.2 mol/L sodium acetate buffer solution (pH 4.0) (5.0 μL), [^64Cu] copper chloride in a 0.2 mol/L sodium acetate buffer solution (pH 4.0) (40 MBq, 155 μL) was added. The mixture was heated at 100° C. for 15 minutes and then left at room temperature for 5 minutes to obtain radiolabeled compound [^64Cu]-(Aa7). […] Its radiochemical purity was 90% or more both immediately after preparation and after standing at room temperature for 24 hours.

The nature of data set [4]: Absorbed doses in each organ in humans calculated with OLINDA/EXM 1.0 from monkey organ distribution. The format is in vivo. As to conditions: calculated with OLINDA/EXM 1.0 from monkey imaging with [111In]-(P2). The procedure: Blood kinetic parameters were calculated with OLINDA/EXM 1.0 from the blood concentration of radioactivity by blood collection over time from a cynomolgus monkey using [^111In]-(P2). Also, absorbed doses in each organ in the case of administration to humans were calculated with OLINDA/EXM 1.0 from organ distribution by imaging using [^111In]-(P2). The radiolabeled compound [^111In]-(P2) (98 MBq/[…]) was administered to a cynomolgus monkey (Hamri Co., Ltd., male, 3 years old, 3.4 kg) under anesthesia. After the administration, blood collection and imaging with a gamma camera were performed over time. The blood collection was carried out 10 minutes, 30 minutes, 60 minutes, 2 hours, 4 hours, 5 hours, 6 hours, 24 hours, 48 hours, 72 hours, and 144 hours after administration. The imaging was carried out 1, 2, 4, 6, 24, 48, 72, and 144 hours after administration with a gamma camera (Symbia, Siemens AG) to take planar images. The anesthesia was carried out using 20 mg/kg ketamine before administration of [^111In]-(P2) and maintained by inhalation anesthesia (2 to 3% isoflurane, 5 to 8 L/min) until the completion of the imaging at 6 hours after administration. At or after 24 hours after administration, blood collection and imaging were performed by the introduction of 20 mg/kg ketamine and 2 mg/kg xylazine. […] The blood kinetic parameters are shown below.

In data set [5] the test system is U87MG cells subcutaneous tumor. The experiment in a line: Treatment experiment of subcutaneously U87MG-transplanted model using [90Y]-(P2). The format is in vivo, mouse. As to conditions: 1 dose; for Rate of inhibition: 16 days after administration, above 100% indicated as 100%; for Tumor volume 16 days after administration / Tumor volume At start of administration: n 8, Mean ± SD; for Tumor volume At start of administration: baseline; for The number of individuals having tumor regression: of n 8. The procedure:
as §1

The subject of data set [6] is T98G cell (human glioblastoma) subcutaneous tumor. The experiment in a line: Treatment experiment of subcutaneously T98G-transplanted model using [90Y]-(A8). The format is in vivo, mouse. The settings on record: Dose 11.1 MBa, 1 dose. As for the experimental part:
as §1
A mixture of a T98G cell suspension (human glioblastoma, 1×10^7 cells) and Matrigel (Becton, Dickinson and Company) in equal amounts was subcutaneously transplanted to the right flank of Balb/cAJcl-nu/nu (CLEA Japan, Inc., female, 6 weeks old). After 90 days, the mice were grouped when their tumors BECAME 100 to 400 mm^3. Phosphate-buffered saline (PBS) or the radiolabeled compound [^90Y]-(A8) was administered to the tail veins of the mice, and their tumor volumes were measured. The evaluation values were calculated in the same way as in Test Example 8 to evaluate the antitumor effect.

For data set [7], the system named is U87MG cells subcutaneous tumor. The experiment in a line: Treatment experiment of subcutaneously U87MG-transplanted model using [90Y]-(A8). The format is in vivo, mouse. The settings on record: 1 dose; for Rate of inhibition: 12 days after administration, above 100% indicated as 100%; for Tumor volume 12 days after administration / Tumor volume At start of administration: n 10, Mean + SD; for Tumor volume At start of administration: baseline; for The number of individuals having tumor regression: of n 10. The procedure:
as §1
U87MG cells were subcutaneously transplanted at 1×10^7 cells/mouse to the right flank of Balb/cAJcl-nu/nu (CLEA Japan, Inc., male, 6 weeks old). After 2 weeks, mice whose tumors became 100 to 500 mm^3 were grouped. Phosphate-buffered saline (PBS) or the radiolabeled compound [^90Y]-(A8) was administered to the tail veins of the mice, and their tumor volumes were measured. The evaluation values were calculated in the same way as in Test Example 8 to evaluate the antitumor effect.

A value given as a limit tells only on which side of the number the result lay.

Turning to `Cc1cc(OCCCC(=O)NCCNC(=O)[C@H](CS(=O)(=O)O)NC(=O)CN2CCN(CC(=O)[O-])CCN(CC(=O)[O-])CCN(CC(=O)[O-])CC2)cc(C)c1S(=O)(=O)N[C@@H](CNC(=O)CCCCc1ccc2c(n1)NCCC2)C(=O)O.[90Y+3]` [[^90Y]-(P2)], in data set [1] (4 hours later), the “Concentration of radioactivity in tumor” value is recorded as 12.52 % ID/g. Further, the “Concentration of radioactivity in tumor” value in data set [1] (24 hours later) was 15.29 % ID/g. Moreover, in data set [2] (Dose 22.2 MBa), the Rate of inhibition was determined as 82%, the “Tumor volume 13 days after administration” value was 882 ± 399 mm^3, the “Tumor volume At start of administration” value is given as 755 ± 293 mm^3 and the “The number of individuals having tumor regression” value (from here on “The number”) stood at 1. For the same molecule, in data set [2] (Dose 29.6 MBa), the Rate of inhibition amounted to 97%, the “Tumor volume 13 days after administration” value was 755 ± 313 mm^3, the “Tumor volume At start of administration” value is given as 736 ± 264 mm^3 and the “The number” value is recorded as 3. In addition, the “radiochemical purity after standing” value in data set [3] is recorded as no less than 95%. In data set [4], the “Absorbed dose, Brain” value is recorded as 1.96 mGy/MBq; the “Absorbed dose, Kidney” value was 14.70 mGy/MBq; the “Absorbed dose, Liver” value is recorded as 1.12 mGy/MBq; the “Absorbed dose, Lung” value is listed as 1.35 mGy/MBq. Also, in data set [4], the “Absorbed dose, Red bone marrow” value is 0.06 mGy/MBq; the “Absorbed dose, Small intestine” value was 0.87 mGy/MBq; the “Absorbed dose, Whole body” value is 0.27 mGy/MBq. Moreover, in data set [5] (Dose 14.8 MBa), the Rate of inhibition is listed as 95%, the “Tumor volume 16 days after administration” value turned out to be 429 ± 188 mm^3, the “Tumor volume At start of administration” value came to 351 ± 72 mm^3 and the “The number” value stood at 2. In data set [5] (Dose 22.2 MBa), the Rate of inhibition is 97%, the “Tumor volume 16 days after administration” value is reported as 386 ± 142 mm^3, the “Tumor volume At start of administration” value was 343 ± 88 mm^3 and the “The number” value was determined as 2.
With `Cc1cc(OCCCC(=O)NCCNC(=O)C(CS(=O)(=O)O)NC(=O)C(CS(=O)(=O)O)NC(=O)CN2CCN(CC(=O)[O-])CCN(CC(=O)[O-])CCN(CC(=O)[O-])CC2)cc(C)c1S(=O)(=O)NC(CNC(=O)c1ccc(CCc2ccc3c(n2)NCCC3)cc1)C(=O)O.[90Y+3]` (stereo not drawn) [[^90Y]-(A8)], the Rate of inhibition in data set [6] (22 days after administration, above 100% indicated as 100%) came out at 100%; in data set [7] (Dose 5.55 MBa) it was 69%; in data set [7] (Dose 11.1 MBa), 100%; in data set [7] (Dose 14.8 MBa) it was 100%. For the same molecule, the “Tumor volume 22 days after administration” value in data set [6] (n 8, Mean ± SD) stood at 123 ± 60 mm^3. For the same molecule, the “Tumor volume At start of administration” value in data set [6] (n 8, Mean ± SD, baseline) came out at 201 ± 75 mm^3; in data set [7] (Dose 5.55 MBa) it was 239 ± 89 mm^3; in data set [7] (Dose 11.1 MBa), 243 ± 101 mm^3; in data set [7] (Dose 14.8 MBa), 251 ± 110 mm^3. Also, the “The number” value in data set [6] (of n 8) came to 6; in data set [7] (Dose 5.55 MBa), 0; in data set [7] (Dose 11.1 MBa), 7; in data set [7] (Dose 14.8 MBa) it was 6. Moreover, the “Tumor volume 12 days after administration” value is listed as 759 ± 344 mm^3 in data set [7] (Dose 5.55 MBa), 199 ± 88 mm^3 in data set [7] (Dose 11.1 MBa) and 251 ± 112 mm^3 in data set [7] (Dose 14.8 MBa).
